According to article PMC7311950, “Potent Tetrahydroquinolone Eliminates Apicomplexan Parasites” (Frontiers in Cellular and Infection Microbiology, 2020):
Converted amounts (≈) assume the structure as drawn.

What was measured:
[1] = test system: T. gondii RH-YFP tachyzoites; assay: In vitro challenge assay, RH strain YFP tachyzoites in HFF; assay type: cell-based; details: Toxoplasma gondii; RH-YFP tachyzoites in HFF; Figure 1A; read-out: Tachy IC50
Method: RH strain YFP Tachyzoites. Protocol was adapted from Fomovska et al. ([2012a],[b]) for HFF. HFF were cultured on a flat, clear-bottomed, black 96-well plate to 90–100% confluence. IMDM (1x, [+] glutamine, [+] 25 mM HEPES, [+] Phenol red, 10% FBS [Gibco, Denmark]) was removed and replaced with IMDM-C(1x, [+] glutamine, [+] 25 mM HEPES, [–] Phenol red, 10% FBS)[Gibco, Denmark]). RH-YFP, lysed from host cells by passing twice through a 27-gauge needle, were counted, then diluted to 32,000/mL in IMDM-C. HFF were infected with 3200 RH-YFP, then returned to 37°C, CO2 (5%) incubator for 1–2 h for infection. Various concentrations of the compounds in 20 μL IMDM-C were added to each well. There were triplicates for each condition. Controls were pyrimethamine/sulfadiazine (standard treatment), 0.1% DMSO only, HFF only, and untreated cultures of HFF infected with 2-fold dilutions of YFP expressing parasites (called “YFP gradient” to establish amount of color from known numbers of YFP expressing parasites). Cells were incubated at 37°C for 72 h. Plates were read using a fluorimeter (Synergy H4 Hybrid Reader, BioTek) to ascertain amount of relative fluorescence units (RFU) YFP, to measure parasite burden after treatment. Data were collected using Gen5 software with IC50 calculated by graphical analysis in Excel.
An initial screening assay of 10 μM, 1 μM, 100 nM, and 10 nM of the compounds was performed. Compounds were not considered effective or pursued for further analysis if there was no inhibition of tachyzoites at 1 μM. If compounds were effective at 1 μM, another experiment was performed to assess effect at 1 μM, 500, 250, 125, 62.5, and 31.25 nM.

[2] = test system: T. gondii EGS strain bradyzoites; assay: In vitro challenge assay for EGS strain bradyzoites; assay type: cell-based, Toxoplasma gondii; details: Toxoplasma gondii; EGS strain in HFF; Figure 1A; read-out: Brady IC50
Method: HFF cells were grown in IMDM on removable, sterile glass cover slips in the bottom of a clear, flat-bottomed 24-well plate. Cultures were infected with 3 × 10^4 EGS strain parasites per well, in 0.5 mL media. The plate was returned to incubator at 37°C overnight. The following day, the media was removed. Colorless IMDM and compounds were added to make various concentrations of the drug. Total volume was 0.5 mL. Two wells had media only, as a control. Plates were returned to the 37°C incubator for 72 h, checked once each 24 h. If tachyzoites were visible in the control before 72 h, cells were fixed and stained. Cells were fixed using 4% paraformaldehyde and stained with Fluorescein-labeled Dolichos Biflorus Agglutinin, DAPI, and antibody to BAG1. Disks were removed, mounted on glass slides, and visualized using microscopy (Nikon Tl7). Slides were scanned using a CRi Panoramic Scan Whole Slide Scanner and viewed using Panoramic Viewer Software. Effects of compounds were quantitated by counting cysts in controls and treated cultures. Dolichos staining delimited structures and single organisms that remained were counted in a representative field of view. This was then multiplied by a factor determined by the total area of the cover slip in order to estimate the number of cysts and organisms in each condition. When the following forms were observed: “true cysts” with a dolichos-staining wall, “pseudocysts” or tight clusters of parasites, and small organisms, if there were fewer than four parasites visible in a cluster, organisms were counted individually (as “small organisms”). The entire scanned coverslip with all fields was also reviewed by 3 observers to confirm consistency.

[3] = Kinetic solubility in PBS pH 7.4 (Chem Partners); details: PBS; for solubility kinetic: pH 7.4, aqueous buffer, kinetic from dmso stock
Method: (§1) The effects of changing R1 as 7-Et, 7-Me, 6-CF3, or 6-Me on activity against RH strain tachyzoites, kinetic solubility, and metabolic stability were compared. Kinetic solubility and metabolic stability in human or murine liver microsomes were measured. The hERG (human Ether-à-go-go-Related) liability was also determined. The hERG gene (KCNH2) encodes a protein Kv11.1, the alpha subunit of a potassium ion channel. This channel conducts the rapid component of the delayed rectifier potassium current, IKr, which is critical for repolarization of cardiac action potentials. A reduction in hERG currents from adverse drug effects can lead to long QT interval syndromes. These syndromes are characterized by action potential prolongation, lengthening of the QT interval on surface EKG, and an increased risk for “torsade de pointes” arrhythmias and sudden death. The MDCK-MDR1 Permeability Assay was also performed. MDCK-MDR1 refers to the ability of a compound to permeate across membranes of MDCK-MDR1 (Madin Darby canine kidney [MDCK] cells with the MDR1 gene [ABCB1], the gene encoding for the efflux protein, P-glycoprotein (P-gp)) in vitro. Assessing transport in both directions (apical to basolateral and basolateral to apical) across the cell monolayers enables an efflux ratio to be determined. […] This provides a prediction of blood brain barrier (BBB) penetration potential/permeability and efflux ratio. Effect in CACO-2 (Colon Adenocarcinoma cells) as a permeability assay and on cytochrome P450 (CYP 450) were also determined. CYP enzymes catalyze oxidative biotransformation (phase 1 metabolism) of most drugs. CYP enzymes, bind to membranes in a cell (cyto) and contain a heme pigment (chrome and P) that absorbs light at a wavelength of 450 nm when exposed to carbon monoxide. Metabolism of a drug by CYP enzymes is a major source of variability in drug effect. These were measured by Chem Partners. The relative effect on HFF and parasite enzymes also were compared.

[4] = Metabolic stability in mouse liver microsomes; details: mouse, liver microsomes, T1/2 (M), predicted half-life in mouse liver microsomes; Figure 1A; min in Figure 2E for the same values
Method: as §1
(§2) In vitro absorption, distribution, metabolism, excretion, and toxicity (ADMET) analyses of the THQ compounds were outsourced to ChemPartner Shanghai Ltd. ELQ-271 (synthesized in-house) was tested as a comparison.

[5] = Metabolic stability in human liver microsomes; details: human, liver microsomes
Method: as §1, §2

SMILES: Cc1[nH]c2c(c(=O)c1-c1ccc(Oc3cccc(OC(F)(F)F)c3)cc1)CCCC2 [AS006]
- IC50 [1]: 60 nM
- IC50 [2]: 1000 nM
- solubility kinetic [3]: 0.55 µM (≈ 0.228 µg/mL)
- half-life [4]: 0.431 h

SMILES: Cc1[nH]c2c(c(=O)c1-c1ccc(Oc3cccc(C(F)(F)F)c3)cc1)CCCC2 [AS012]
- IC50 [1]: 260 nM
- solubility kinetic [3]: 2.19 µM (≈ 0.875 µg/mL)
- half-life [4]: 0.501 h

SMILES: Cc1[nH]c2c(c(=O)c1-c1ccc(Oc3ccc(F)c(Cl)c3)cc1)CCCC2 [AS021]
- IC50 [1]: 65 nM
- IC50 [2]: 1000 nM
- solubility kinetic [3]: 2 µM (≈ 0.768 µg/mL)
- half-life [4]: 0.685 h

SMILES: Cc1[nH]c2c(c(=O)c1-c1ccc(Oc3cc(Cl)cc(Cl)c3)cc1)CCCC2 [AS022]
- IC50 [1]: 30 nM
- IC50 [2]: 1000 nM
- solubility kinetic [3]: 6.25 µM (≈ 2.5 µg/mL)
- half-life [4]: 0.477 h

SMILES: Cc1[nH]c2c(c(=O)c1-c1ccc(Oc3ccc4c(c3)OCO4)cc1)CCCC2 [AS032]
- IC50 [1]: 200 nM

SMILES: Cc1[nH]c2c(c(=O)c1-c1ccc(Oc3cc(Cl)nc(Cl)c3)cc1)CCCC2 [AS034]
- IC50 [1]: 280 nM
- solubility kinetic [3]: 5.05 µM (≈ 2.03 µg/mL)
- half-life [4]: 0.415 h

SMILES: Cc1[nH]c2ccccc2c(=O)c1-c1ccc(Oc2ccc(OC(F)(F)F)cc2)cc1 [ELQ271, reference compound]
- IC50 [1]: 30 nM
- IC50 [2]: 5000 nM
- solubility ([3]; pH 7.4, aqueous solubility (PBS, pH 7.4), amorphous compounds): 0.2 µM (≈ 0.0823 µg/mL)
- half-life [4]: 7.47 h

SMILES: Cc1c(-c2ccc(Oc3ccc(OC(F)(F)F)cc3)cc2)c(=O)c2c(n1C)CCCC2 [JAG023]
- IC50 [1]: 800 nM

SMILES: Cc1[nH]c2c(c(=O)c1-c1ccc(Oc3ccc(F)cc3)cc1)CCCC2 [JAG058]
- IC50 [1]: 40 nM
- IC50 [2]: 1000 nM
- solubility kinetic [3]: 2.38 µM (≈ 0.832 µg/mL)
- half-life [5]: 4.39 h
- half-life [4]: 0.653 h

SMILES: Cc1[nH]c2c(c(=O)c1-c1ccc(Oc3cccc(Cl)c3)cc1)CCCC2 [JAG062]
- IC50 [1]: 16 nM
- IC50 [2]: 1000 nM
- solubility kinetic [3]: 0.33 µM (≈ 0.121 µg/mL)
- half-life [5]: 2.26 h
- half-life [4]: 0.207 h

SMILES: Cc1[nH]c2c(c(=O)c1-c1ccc(Oc3ccc(C(F)(F)F)cc3)cc1)CCCC2 [JAG063]
- IC50 [1]: 200 nM
- solubility kinetic [3]: 0.45 µM (≈ 0.18 µg/mL)
- half-life [5]: 8.94 h
- half-life [4]: 2.12 h

SMILES: Cc1[nH]c2c(c(=O)c1-c1ccc(Oc3cccc(F)c3)cc1)CCCC2 [JAG069]
- IC50 [1]: 30 nM
- IC50 [2]: 1000 nM
- solubility kinetic [3]: 0.5 µM (≈ 0.175 µg/mL)
- half-life [5]: 3.37 h
- half-life [4]: 0.29 h

SMILES: Cc1[nH]c2c(c(=O)c1-c1ccc(Oc3ccc(Cl)c(Cl)c3)cc1)CCCC2 [JAG084]
- IC50 [1]: 55 nM
- IC50 [2]: 1000 nM
- solubility kinetic [3]: 0.68 µM (≈ 0.272 µg/mL)
- half-life [4]: 1.05 h

SMILES: O=C(O)c1[nH]c2c(c(=O)c1-c1ccc(Oc3ccc(OC(F)(F)F)cc3)cc1)CCCC2 [JAG091]
- IC50 [1]: > 10000 nM

SMILES: Cc1[nH]c2c(c(=O)c1-c1ccc(O)cc1)CCCC2 [JAG094]
- IC50 [1]: 1000 nM

SMILES: Cc1[nH]c2c(c(=O)c1-c1ccc(Oc3ccc(OC(F)(F)F)cc3)cc1)CC(C(F)(F)F)CC2 (centres unmarked) [JAG100]
- IC50 [1]: > 10000 nM

SMILES: Cc1[nH]c2c(c(=O)c1-c1ccc(Oc3ccc(OC(F)(F)F)cc3)cc1)CC(C)CC2 (centres unmarked) [JAG106]
- IC50 [1]: 2500 nM

SMILES: Cc1[nH]c2c(c(=O)c1-c1ccc(Oc3ccc(OC(F)(F)F)cc3)cc1)CCC(C)C2 (centres unmarked) [JAG107]
- IC50 [1]: 50 nM
- solubility kinetic [3]: 0.03 µM (≈ 0.0129 µg/mL)
- half-life [4]: 1.87 h

SMILES: CCC1CCc2c([nH]c(C)c(-c3ccc(Oc4ccc(OC(F)(F)F)cc4)cc3)c2=O)C1 (centres unmarked) [JAG121]
- IC50 [1]: 55 nM
- solubility kinetic [3]: 0.16 µM (≈ 0.071 µg/mL)
- half-life [4]: 1.05 h

SMILES: Cc1[nH]c2cnccc2c(=O)c1-c1ccc(Oc2ccc(OC(F)(F)F)cc2)cc1 [JAG129]
- IC50 [1]: 85 nM
- solubility kinetic [3]: 5.12 µM (≈ 2.11 µg/mL)

SMILES: Cc1[nH]c2c(c(=O)c1-c1ccc(Oc3ccc(OC(F)(F)F)cc3)cc1)CCC(C(F)(F)F)C2 (centres unmarked) [JAG162]
- IC50 [1]: 300 nM
- solubility kinetic [3]: 0.02 µM (≈ 0.00967 µg/mL)
- half-life [4]: 2.41 h

SMILES: CCOC(=O)Oc1c2c(nc(C)c1-c1ccc(Oc3ccc(OC(F)(F)F)cc3)cc1)CCCC2 [JAG171]
- IC50 [1]: 100 nM

SMILES: CCC1CCc2c([nH]c(CO)c(-c3ccc(Oc4ccc(OC(F)(F)F)cc4)cc3)c2=O)C1 (centres unmarked) [JAG174]
- IC50 [1]: 380 nM

SMILES: O=c1c2c([nH]c(CO)c1-c1ccc(Oc3ccc(OC(F)(F)F)cc3)cc1)CC(C(F)(F)F)CC2 (centres unmarked) [JAG187]
- IC50 [1]: 2000 nM

SMILES: CC1CCc2c([nH]c(CO)c(-c3ccc(Oc4ccc(OC(F)(F)F)cc4)cc3)c2=O)C1 (centres unmarked) [JAG193]
- IC50 [1]: 50 nM

SMILES: Cc1[nH]c2c(c(=O)c1-c1ccc(Oc3cc(Cl)cc(Cl)c3)cc1)CCC(C)C2 (centres unmarked) [JAG208]
- IC50 [1]: 20 nM
- IC50 [2]: 1000 nM

SMILES: Cc1[nH]c2ccccc2c(=O)c1-c1ccc(Oc2ccccc2)cc1 [MJM129]
- IC50 [1]: 50 nM
- IC50 [2]: > 10000 nM

SMILES: Cc1[nH]c2ccnn2c(=O)c1-c1ccc(Oc2ccc(OC(F)(F)F)cc2)cc1 [MJM141]
- IC50 [1]: 8200 nM
- IC50 [2]: 10000 nM
- solubility kinetic [3]: 0.94 µM (≈ 0.377 µg/mL)
- half-life [5]: 4.64 h
